In patent publication US20170009093A1, “LIQUID COMPOSITION, PIGMENT DISPERSION LIQUID, AND INK JET RECORDING AQUEOUS INK COMPOSITION” (Seiko Epson Corporation, priority 2015, published 2017):
Where two headings read alike, the source gives them in different places.

Assay: water-octanol partition coefficient (log P), OECD Test Guideline 107
Type: physicochemical
Description: The water-octanol partition coefficient, or log P value, is a value defined by OECD Test Guideline 107. […] The constituents shown in Table 1 were as below, and the log P values in Table 1 were determined in accordance with OECD Test Guideline 107. • (1) First solvents

[1] = octanol/water, OECD Test Guideline 107

Row | logP [1] | Compound | other results
1 | 1 | CCCCCC(O)CO (stereo not shown) [1,2-heptanediol] | –
2 | – | dipropylene glycol monomethyl ether | log P (water-octanol partition coefficient) (OECD Test Guideline 107): −0.46
3 | 1.69 | OCC(CO)(CO)COc1ccccc1 [2-hydroxymethyl-2-phenoxymethyl-1,3-propanediol] | –
4 | 0.88 | OCC(O)COCc1ccccc1 (stereo not shown) [3-benzyloxy-1,2-propanediol] | –
5 | – | CCCCOCCOCCO [butyl diglycol] | log P (water-octanol partition coefficient): 0.56
6 | -0.11 | CC(C)(C)C(O)CO (stereo not shown) [3,3-dimethylbutane-1,2-diol] | –
7 | 0.75 | OCC(O)COc1ccccc1 (stereo not shown) [phenyl glyceryl ether] | –
8 | 0.8 | COc1ccc(COCC(O)CO)cc1 (stereo not shown) [3-(4-methoxybenzyloxy)-1,2-propanediol] | –
9 | 1.1 | CC(O)(CO)COc1ccccc1 (stereo not shown) [2-methyl-3-phenoxy-1,2-propanediol] | –
10 | 0.7 | CCCCC(O)CO (stereo not shown) [1,2-hexanediol] | –
11 | – | CCC(O)CO (stereo not shown) [1,2-butanediol] | logP (OECD Test Guideline 107): -0.34
12 | 1.21 | Cc1cccc(OCC(O)CO)c1 (stereo not shown) [3-(3-methylphenoxy)-1,2-propanediol] | –
13 | – | COCCOCCOCCOCCO [Methyl tetraglycol, reference compound] | log P (water-octanol partition coefficient) (OECD Test Guideline 107): −1.87
